Experimental data from US8563551B2, “Method for preventing or treating a disease related to the glucocorticoid receptor” (Santen Pharmaceutical Co., Ltd., priority 2006, dated 2013).

Biological target: T1, Recombinant human GR (Homo sapiens, UniProt P04150)
T1 construct: purchased Invitrogen P2816
T1 sequence (P04150 1-777): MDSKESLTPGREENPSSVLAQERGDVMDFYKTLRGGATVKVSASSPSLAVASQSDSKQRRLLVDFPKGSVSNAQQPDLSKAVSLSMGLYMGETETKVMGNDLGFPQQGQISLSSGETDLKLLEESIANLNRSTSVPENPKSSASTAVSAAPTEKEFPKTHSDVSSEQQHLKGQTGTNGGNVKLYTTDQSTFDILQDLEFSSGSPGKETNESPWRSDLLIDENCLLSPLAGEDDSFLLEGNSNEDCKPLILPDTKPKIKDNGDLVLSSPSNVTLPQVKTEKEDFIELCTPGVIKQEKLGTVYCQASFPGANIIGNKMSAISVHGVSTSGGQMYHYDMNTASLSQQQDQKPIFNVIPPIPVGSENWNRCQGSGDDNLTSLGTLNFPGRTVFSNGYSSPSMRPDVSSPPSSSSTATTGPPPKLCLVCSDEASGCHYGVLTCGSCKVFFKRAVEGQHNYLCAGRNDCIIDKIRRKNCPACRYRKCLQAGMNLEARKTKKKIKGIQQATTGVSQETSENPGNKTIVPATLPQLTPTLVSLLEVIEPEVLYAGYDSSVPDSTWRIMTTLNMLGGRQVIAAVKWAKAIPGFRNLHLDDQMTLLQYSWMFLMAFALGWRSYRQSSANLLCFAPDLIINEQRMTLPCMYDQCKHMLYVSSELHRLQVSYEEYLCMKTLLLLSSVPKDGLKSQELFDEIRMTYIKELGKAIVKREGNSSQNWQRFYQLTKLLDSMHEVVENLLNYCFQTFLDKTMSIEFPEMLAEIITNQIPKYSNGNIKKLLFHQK
Assay: GR competitor assay (receptor competitor assay by fluorescence polarization, Invitrogen kit P2816)
Details: 20 μM test compound solution (10 μL per well plus 5 μL 4×GS1 and 5 μL 4×GR); relative to 2 mM dexamethasone positive control; ratios of 100% or more are indicated by 100%; read-out: GR Binding ratio (%)
Protocol: In order to evaluate a binding activity to GR, a receptor competitor assay was carried out by a fluorescence polarization method. In the assay, a GR competitor assay kit (manufactured by Invitrogen, cat No. P2816) was used, and a procedure was carried out according to the protocol attached to the kit. Hereinafter, the specific method will be described.
GR screening buffer: A buffer containing 10 mM potassium phosphate (pH 7.4), 20 mM sodium molybdate (Na2MoO4), 0.1 mM ethylene diamine tetraacetic acid (EDTA), 5 mM dithiothreitol (DTT), 0.1 mM stabilizing peptide and 2% dimethylsulfoxide was prepared.
4×GS1 solution: Fluormone™ GS1, which is a fluorescent glucocorticoid ligand, was diluted with GR screening buffer, whereby a 4 nM solution was prepared.
4×GR solution: Recombinant human GR was diluted with GR screening buffer, whereby a 16 nM solution was prepared.
After a test compound was dissolved in dimethylsulfoxide, the resulting solution was diluted with GR screening buffer, whereby a 20 μM test compound solution was prepared.
1) The test compound solution was added in an amount of 10 μL into each well of a 384-well plate, and then, 4×GS1 solution and 4×GR solution were added in an amount of 5 μL into each well, respectively.
2) The plate was incubated in a dark place at room temperature for 2 to 4 hours.
3) By using a multimode plate reader, Analyst™ HT (manufactured by LJL Biosystems), fluorescence polarization of each well was measured. As the blank, a well containing GR screening buffer in place of the test compound and 4×GS1 solution was used.
4) The same procedure as that in the above 1) to 3) was carried out except that GR screening buffer was used in place of the test compound solution, and the obtained result was taken as the negative control.
5) The same procedure as that in the above 1) to 3) was carried out except that 2 mM dexamethasone was used in place of the test compound solution, and the obtained result was taken as the positive control.
A GR binding ratio (%) was calculated from the following equation. GR binding ratio(%)=100×[1−(fluorescence polarization of test compound solution−fluorescence polarization of positive control solution)/(fluorescence polarization of negative control solution fluorescence polarization of positive control solution)] (Test Results and Discussion)

Row | inhibition at 20 µM (stock) | Structure (SMILES) | inhibition at 20 µM
1 | 91% | COC(=O)Oc1ccc(-c2ccc3c(c2COC(=O)c2ccc(C)s2)C(C)=CC(C)(C)N3)c(OC)c1 [Compound 3-1, 6-(2-Methoxy-4-methoxycarbonyloxyphenyl)-5-(5-methylthiophen-2-ylcarbonyloxymethyl)-2,2,4-trimethyl-1,2-dihydroquinoline] | –
2 | 94% | COc1cc(OC(=O)N2CCOCC2)ccc1-c1ccc2c(c1COC(=O)c1ccc(C)s1)C(C)=CC(C)(C)N2 [Compound 4-3, 6-[2-Methoxy-4-(morpholin-4-ylcarbonyloxy)phenyl]-5-(5-methylthiophen-2-ylcarbonyloxymethyl)-2,2,4-trimethyl-1,2-dihydroquinoline] | –

The next lines start with the compound.

Row | Structure (SMILES) | inhibition at 20 µM (stock) | inhibition at 20 µM
3 | CCCS(=O)(=O)Oc1ccc(-c2ccc3c(c2COC(=O)c2ccc(C)s2)C(C)=CC(C)(C)N3)c(OC)c1 [Compound 2-2, 6-(2-Methoxy-4-propylsulfonyloxyphenyl)-5-(5-methylthiophen-2-ylcarbonyloxymethyl)-2,2,4-trimethyl-1,2-dihydroquinoline] | 99% | –
4 | COc1cc(OS(=O)(=O)CC(C)C)ccc1-c1ccc2c(c1COC(=O)c1ccc(C)s1)C(C)=CC(C)(C)N2 [Compound 2-3] | 97% | –
5 | COc1cc(OS(=O)(=O)C(C)C)ccc1-c1ccc2c(c1COC(=O)c1ccc(C)s1)C(C)=CC(C)(C)N2 [Compound 2-4, 6-(4-Isopropylsulfonyloxy-2-methoxyphenyl)-5-(5-methylthiophen-2-ylcarbonyloxymethyl)-2,2,4-trimethyl-1,2-dihydroquinoline] | 100% | –
6 | COc1cc(OS(=O)(=O)C2CCCC2)ccc1-c1ccc2c(c1COC(=O)c1ccc(C)s1)C(C)=CC(C)(C)N2 [Compound 2-5, 6-(4-Cyclopentylsulfonyloxy-2-methoxyphenyl)-5-(5-methylthiophen-2-ylcarbonyloxymethyl)-2,2,4-trimethyl-1,2-dihydroquinoline] | 100% | –
7 | COc1cc(OS(C)(=O)=O)ccc1-c1ccc2c(c1COC(=O)c1ccc(C)s1)C(C)=CC(C)(C)N2 [Compound 2-6, 6-(2-Methoxy-4-methylsulfonyloxyphenyl)-5-(5-methylthiophen-2-ylcarbonyloxymethyl)-2,2,4-trimethyl-1,2-dihydroquinoline] | 100% | –
8 | CCS(=O)(=O)Oc1ccc(-c2ccc3c(c2COC(=O)c2ccc(C)s2)C(C)=CC(C)(C)N3)c(OC)c1 [Compound 2-7, 6-(4-Ethylsulfonyloxy-2-methoxyphenyl)-5-(5-methylthiophen-2-ylcarbonyloxymethyl)-2,2,4-trimethyl-1,2-dihydroquinoline] | 100% | –
9 | CCCCS(=O)(=O)Oc1ccc(-c2ccc3c(c2COC(=O)c2ccc(C)s2)C(C)=CC(C)(C)N3)c(OC)c1 [Compound 2-8, 6-(4-Butylsulfonyloxy-2-methoxyphenyl)-5-(5-methylthiophen-2-ylcarbonyloxymethyl)-2,2,4-trimethyl-1,2-dihydroquinoline] | 100% | –
10 | COc1cc(OS(=O)(=O)C2CC2)ccc1-c1ccc2c(c1COC(=O)c1ccc(C)s1)C(C)=CC(C)(C)N2 [Compound 2-9, 6-(4-Cyclopropylsulfonyloxy-2-methoxyphenyl)-5-(5-methylthiophen-2-ylcarbonyloxymethyl)-2,2,4-trimethyl-1,2-dihydroquinoline] | 100% | –
11 | COc1cc(OC(=O)Nc2cccnc2)ccc1-c1ccc2c(c1COC(=O)c1ccc(C)s1)C(C)=CC(C)(C)N2 [Compound 4-1, 6-[2-Methoxy-4-(pyridin-3-ylaminocarbonyloxy)phenyl]-5-(5-methylthiophen-2-ylcarbonyloxymethyl)-2,2,4-trim ethyl-1,2-dihydroquinoline] | – | 100%
